# Results as given in US20030129190A1, “FX activity in cells in cancer, inflammatory responses and diseases and in autoimmunity” (Ramot University Authority for Applied Research & …, priority 1999, published 2003).
# System: E-selectin-IgG chimera
# Conditions: 5 mM EDTA; shear stress 1 dyn/cm^2
# Procedure: Cells (10^6/ml) were perfused at room temperature through the chamber at a shear stress of 1 dyn/cm^2 in binding medium alone or in the presence of 5 mM EDTA (Erg+EDTA). The number of cells which accumulated and maintained rolling at the end of 1 min of perfusion in two microscopic fields was determined as described in materials and methods. […] After 1 min perfusion, adherent cells were subjected to an abrupt 5-fold increase of shear stress and the number of cells that remained bound for at least 5 sec after the increase of shear was determined. The mean number +/− range of cells accumulated at 1 dyn/cm^2 and of accumulated cells remaining stably bound at 5 dyn/cm^2 on two fields of view are shown for the E48^lo and E48^hi cells. […] Data are representative of four independent experiments.
# Cultured IUC cells grown as monolayers were harvested by a 10 min incubation with H/H medium (Hanks Balanced Salt Solution, HBSS (Sigma Israel Chemicals Ltd., Rehovot, Israel), containing BSA (2 mg/ml, fraction V, Sigma) and 10 mM HEPES, pH 7.4), supplemented with 5 mM EDTA at 37 Washed cells were resuspended in the same medium at a concentration of 1×10^7 cells/ml and kept at room temperature until use. Cells were diluted 20 fold into binding medium (H/H supplemented with 2 mM Ca^2+) and immediately perfused through the flow chamber. […]
smiles,measurement,value
O=C(O)CN(CCN(CC(=O)O)CC(=O)O)CC(=O)O [EDTA],adhesive interactions of E48^hi cells with E-selectin coated substrate,eliminated
